Experimental data reported in patent US20230287391A1, “KRAB FUSION REPRESSORS AND METHODS AND COMPOSITIONS FOR REPRESSING GENE EXPRESSION” (THE GOVERNING COUNCIL OF THE UNIVERSITY OF TORONTO, priority 2020, published 2023).

Experiments:
Format in all cases: cell-based, human
[1] = tested on: SV40 promoter driving EGFP expression in HEK293T cells; assay: SV40-EGFP reporter silencing by KRAB-dCas9 fusions in HEK293T cells; conditions: KRAB fused to N terminus of dCas9, flow cytometry 21 d after infection
Description: (§1) The human genome encodes over 350 KRAB domain proteins. It was postulated that KRAB domains would differ in their ability to silence gene expression when fused to dCas9. 57 human KRAB domains were individually fused to the N terminus of dCas9 and assayed for activity when recruited to one of two different genomically integrated reporter constructs. In one, they were recruited to a SV40 promoter driving EGFP expression in HEK293T cells, and in the other tethered to a 7×TetO array downstream of the polyadenylation site of a PGK1-EGFP-pA reporter in K562 cells (FIG. 1a). KRAB domains had strikingly different effects, spanning from almost complete silencing to no change at all (FIG. 1b,c and FIG. 5). The differences were not explained by expression levels of the dCas9 fusion (FIG. 3). […] KRAB was also fused to the C-terminus of dCas9 with similar results (see Example 5 and FIG. 3).
(§2) Cell culture. All HEK293T cells, including the SV40-EGFP reporter cell line (gift from Lei Stanley Qi lab, Stanford University), were maintained in Dulbecco's Modified Eagle's Medium (DMEM) with 10% fetal bovine serum (FBS), and 1% penicillin-streptomycin. Since the SV40-EGFP reporter cell line was originally generated with a random integration of lentivirus, a clonal line was made to ensure homogeneously high expression levels of EGFP and its targeting gRNA. […]

HEK293T cells = assay: Genome-wide CRISPRi cell viability dropout screen (Dolcetto Set A); conditions: depletion of gRNAs for gold-standard essential vs non-essential genes after 21 days
Description: Finally, the performance of the three KRAB effector constructs was investigated in a large-scale unbiased screen. […] These cells were infected with the recently described Dolcetto Set A gRNA library targeting 18,901 genes with three gRNAs per gene and measured gRNA depletion after 21 days. The relative depletion of gRNAs targeting gold-standard essential genes and non-essential genes with each construct was compared with receiver operating characteristics (ROC) curves. […] It should be noted that the AUROC values reported here are somewhat lower than what has been reported for CRISPRi screens in other cell lines like K562 and […] but in line with the previously conducted screen in HEK293T cells (FIG. 2D, E). The lower efficiency may be due to the lower expression level of TRIM28 in HEK293T cells (FIG. 3).
CRISPRi. Viral titer for each cell line was determined on 15-cm dishes with a range of virus volumes (0, 50, 100, 150, 200, 250 and 500 μl). Validated HEK293T cells with heterogeneous expression of each repressor-dCas9 derivative was transduced at a dose resulting in ˜30% […]. Selection was done with 1 μg/ml puromycin 24 hrs post transduction resulting in complete selection within 48-72 hrs (TO). At ˜30% infection efficiency, enough cells were transduced to achieve an initial representation of >500-fold for each dCas9 variant. […]

[2] = tested on: 7×TetO array downstream of the polyadenylation site of a PGK1-EGFP-pA reporter in K562 cells; assay: PGK1-EGFP-pA reporter silencing by KRAB-dCas9 fusions tethered to a 7xTetO array in K562 cells; conditions: KRAB fused to N terminus of dCas9
Description: as §1, §2

[3] = tested on: SV40-EGFP reporter cell line; assay: ABA-induced recruitment of KRAB-PYL1 to ABI1-dCas9 at the SV40-EGFP reporter
Description: The difference in KRAB-domain activity might be explained either by their intrinsic potency or by their distinct temporal dynamics. […] The interaction between plant proteins […] and PYL1 is induced by abscisic acid (ABA) in a reversible manner (FIG. 1f). A clonal SV40-EGFP reporter cell line expressing ABI1—dCas9 and a gRNA targeting two sites on the SV40 promoter was generated. These cells were then infected with either ZIM3 or KOX1 KRAB domain fused to PYL1 and treated with ABA for 20 d (FIG. 1g, solid lines). […] When ABA was withdrawn after 9d, derepression occurred with similar dynamics with both KRAB domains (FIG. 1g, dashed lines). Thus, the difference in KRAB-domain potency is not due to slower dynamics of KOX1 KRAB induced repression. […] This is consistent with previous studies showing that KRAB domains can mediate silencing via both reversible and irreversible mechanisms.

Substance | repression of EGFP reporter [1] | repression of EGFP reporter ([1]; listed as KOX1) | AUROC (gRNA-level) (HEK293T cells) | AUROC (gene-level) (HEK293T cells) | repression of EGFP reporter [2] | level of EGFP repression ([3]; 100 μM ABA for 20 d, compared with KOX1 KRAB-PYL1) | EGFP expression relative to the original levels ([3]; after 40-d silencing followed by ABA washout)
KOX1 KRAB: KRAB domain from KOX1 (ZNF10) fused to dCas9, used in current implementations of CRISPRi | not a particularly strong repressor | did not repress the reporter very robustly | 0.62 | 0.66 | not a particularly strong repressor | – | –
ZIM3 KRAB-PYL1: ZIM3 KRAB domain fused to PYL1 (SEQ ID NO: 16), recruited to ABI1-dCas9 by abscisic acid | – | – | – | – | – | higher level of repression | 10%
